According to patent publication US20260224594A1, “COMPOSITION FOR TREATING CANCER CACHEXIA, COMPRISING DIFLUNISAL OR A PHARMACEUTICALLY ACCEPTABLE SALT THEREOF” (ANIMUSCURE INC., priority 2023, published 2026):

How the values were obtained:
C2C12 myoblast cells [1] = experiment: Myoblast proliferation, BrdU staining; assay type: cell-based, mouse; conditions: 1 μM, approximately 20 hours
Experimental: To analyze the effect of diflunisal on the proliferation of myoblast cells, a BrdU staining experiment was performed. C2C12 myoblast cells were treated with DMSO as a control or diflunisal (1 μM) for approximately 20 hours, and then allowed to react with BrdU for 15 minutes. Thereafter, immunofluorescence staining was performed using an antibody against BrdU (FIG. 5A). As a result, it was confirmed that the proliferation of myoblast cells increased in the group treated with diflunisal.

Pax7 = Pax7 mRNA expression (qRT-PCR); assay type: cell-based, mouse; conditions: C2C12 cells treated with diflunisal
Excerpt: FIGS. 5A-5B and 6 show the results of confirming the stem cell differentiation-promoting effect through administration of diflunisal. […] In addition, it was confirmed whether the expression level of Pax7, which is a muscle proliferation marker, increased due to diflunisal treatment.

C2C12 cell lines [2] = experiment: Muscle cell differentiation, MHC immunofluorescence staining and myotube diameter; assay type: cell-based, mouse; conditions: 10, 100, 1,000, 10,000 nM, day 3 of differentiation induction
Experimental: (§1) C2C12 is a myoblast cell line obtained from the C3H mouse strain, and is widely used to study muscle cell differentiation. The cells were cultured in a cell culture medium (growth medium (GM)), and muscle cell differentiation was induced in a differentiation medium (DM). DMEM containing 15% fetal bovine serum (FBS) was used as the cell culture medium, and DMEM containing 2% horse serum was used as the differentiation medium. To induce muscle cell differentiation, cells were seeded in a cell culture medium and cultured. When the density of cells reached approximately 80% to 90%, the medium was replaced with a differentiation medium, and differentiation was induced for approximately 2 to 3 days. To analyze the effect of diflunisal on the differentiation of muscle stem cells, MHC immunofluorescence staining was performed (FIG. 2). […] On day 3 of differentiation induction, immunofluorescence staining was performed using an MHC antibody to compare and analyze the degree of myotube formation.

C2C12 cell lines [3] = experiment: Immunoblotting of differentiation markers MHC and myogenin; assay type: cell-based, mouse; conditions: positive control ursolic acid (UA)
Experimental: as §1, with “formation. […] In addition, the expression levels of differentiation markers were confirmed through immunoblotting.” for “formation.”

[4] = test system: C57BL/6 male mice with CTX-induced muscle damage; experiment: Stem cell proliferation in cardiotoxin (CTX) muscle damage animal model, BrdU staining of TA muscle; assay type: in vivo, mouse; conditions: oral 0.02 mg/kg for 2 weeks, CTX injection, then 0.02 mg/kg for 3 days
Experimental: C57BL/6 male mice were orally administered diflunisal at a dose of 0.02 mg/kg for 2 weeks, and then on the second week, 10 μM cardiotoxin (CTX) was directly injected into the muscle at 2 μL per g of body weight to induce muscle damage. Thereafter, diflunisal was administered at a dose of 0.02 mg/kg for 3 days. Then, immunofluorescence staining was performed on the TA muscle tissue of the mice using a BrdU antibody. […] Also, a quantitative comparison confirmed that the proportion of BrdU-positive cells increased by more than 2.5 times compared to the control when the cells were treated with diflunisal (FIG. 8).

[5] = test system: muscle cells (myotubes) in cancer cell culture medium (CM); experiment: Cachexia induced by cancer cell culture medium (CM) in muscle cells; assay type: cell-based; conditions: 10, 100, 1,000 nM
Experimental: To confirm the amelioration effect of diflunisal on cancer cachexia, cancer cachexia was induced in muscle cells using a cancer cell culture medium (CM) (FIG. 11, top). […] Also, the diameter of the myotubes was measured to confirm the improvement.

C2C12 myoblast cells [6] = experiment: Cytotoxicity of diflunisal, MTT assay; assay type: cell-based, mouse; conditions: approximately 10,000 nM, 18 hours, vs control
Experimental: C2C12 is a myoblast cell line obtained from the C3H mouse strain, and is widely used to study muscle cell differentiation. The cells were cultured in a cell culture medium (growth medium (GM)), and muscle cell differentiation was induced in a differentiation medium (DM). DMEM containing 15% fetal bovine serum (FBS) was used as the cell culture medium, and DMEM containing 2% horse serum was used as the differentiation medium.
The cytotoxicity of diflunisal (CAS No. 22494-42-4, W06) was evaluated using an MTT assay. C2C12 myoblast cells were treated with diflunisal at concentrations of 0, 1, 10, 100, 1,000, and 10,000 nM for 18 hours, and cell viability was then confirmed using the MTT assay. Myoblast cells (1.0×10^4 cells/96 well) were allowed to react with 5 mg/mL MTT for 4 hours in a cell culture medium, and the eluted reaction product was then measured for absorbance at 570 nm.

[7] = test system: C57BL/6 mice injected with Lewis lung carcinoma; experiment: Cancer cachexia animal model (Lewis lung carcinoma injected mice); assay type: in vivo, mouse
Experimental: Lewis lung carcinoma (LCC, 5×10^6 cells/mice) was injected into C57BL/6 mice to induce lung cancer. Two weeks after injection, diflunisal was orally administered daily for 21 days at a dose of 0.02 or 0.2 mpk (FIG. 13). Thereafter, the changes in body weight, tumor weight, and tumor-free body weight for each mouse were measured. […] To compare the motor ability in the cancer cachexia-induced mouse model, a grip strength test was conducted for each experimental group. […]

C2C12 myoblast cells [8] = experiment: Dexamethasone (DEX)-induced muscle atrophy in C2C12 myotubes; assay type: cell-based, mouse; conditions: 100 μM DEX pretreatment 4 hours, diflunisal 1 μM, 24 hours in DM
Experimental: To determine whether diflunisal could recover or protect muscles from dexamethasone (DEX)-induced muscle atrophy, this experiment was performed using C2C12 myoblast cells. C2C12 myoblast cells were differentiated in a differentiation medium (DM) for 2 days, pretreated with 100 μM DEX for 4 hours, and then treated with diflunisal (1 μM) together with DMSO as a vehicle. Then, the C2C12 myoblast cells were further cultured in DM for 24 hours. Immunofluorescence staining was performed on dexamethasone-treated C2C12 myotube cells using an MHC antibody to compare and analyze the degree of myotube formation. […] Also, when the expression level of atrogin-1, which is a muscle atrophy marker, was confirmed through immunoblotting, it was confirmed that its expression increased when dexamethasone was administered.

[9] = cancer cachexia-induced mice, diflunisal administered

With `O=C(O)c1cc(-c2ccc(F)cc2F)ccc1O` [diflunisal] the “proliferation of myoblast cells (BrdU immunofluorescence staining)” value (C2C12 myoblast cells [1]; vs DMSO) was “increased”, the “proportion of BrdU-positive cells” value (C2C12 myoblast cells [1]; vs DMSO control) was “significantly increased compared to the control” and the “relative expression level of Pax7 mRNA” value (Pax7) was “increased”. For the same molecule, the diameter of myotubes (C2C12 cell lines [2]) was “increased in a concentration-dependent manner”, the “muscle cell differentiation (myotube formation, MHC immunofluorescence)” value (C2C12 cell lines [2]; vs DMSO control) was “promoted in a concentration-dependent manner” and the “expression of differentiation marker MHC (immunoblotting)” value (C2C12 cell lines [3]) was “induced an increase in the expression”. For the same molecule, the “expression of differentiation marker myogenin (immunoblotting)” value (C2C12 cell lines [3]) was “induced an increase in the expression”, the “increase of proportion of BrdU-positive cells compared to the control” value ([4]; TA muscle) was “more than 2.5 times” and the “proliferation of myoblast cells in TA muscle (BrdU staining)” value [4] was “increased”. For the same molecule, the “diameter of myotubes in CM-induced cancer cachexia model” value [5] was “increased in a concentration-dependent manner”, the “cell viability (MTT assay)” value (C2C12 myoblast cells [6]) was “almost similar to that of the control” and the tumor-free body weight ([7]; 0.02 mpk oral daily for 21 days, vs cancer-induced group) was “significantly increased compared to the cancer-induced group”. The “grip strength (motor ability)” value ([7]; 0.02 or 0.2 mpk oral daily for 21 days, vs cancer-induced group) was “increased in a concentration-dependent manner”, the “muscle mass loss of hindlimb muscles (TA, EDL, SOL, GA)” value [7, 9] was “significantly improved” and the “reduction in fat and organ weights (white fat, visceral fat, liver, heart, spleen)” value [7, 9] was “improved”. For the same molecule, the “relative mRNA expression level of MuRF-1” value [7, 9] was “decreased again”, the “relative mRNA expression level of atrogin-1” value [7, 9] was “decreased again” and the “change (decrease) in tumor-free body weight” value ([7]; oral daily for 21 days, 0.02 or 0.2 mpk) was “improved”. The overall body weight ([7]; oral daily for 21 days, 0.02 or 0.2 mpk, all experimental groups) was “no significant change”, the “MHC expression (immunofluorescence) after dexamethasone-induced atrophy” value (C2C12 myoblast cells [8]) was “restored” and the “MuRF1 expression (qRT-PCR)” value (C2C12 myoblast cells [8]) was “significantly reduced”. For the same molecule, the “expression level of atrogin-1 (muscle atrophy marker, immunoblotting)” value (C2C12 myoblast cells [8]) was “decreased again”.
